Measured values published in publication PMC6522510 (Nature Communications, 2019).
pEC50: −log10 of the molar value. Like-named read-outs stand apart in the source and are kept apart here.

Experiments:
CHRF288-11 [1] = assay: Secondary dose-response HTS, Cell Titer Glo; assay type: cell-based, human
ML2 = assay: Secondary dose-response HTS, Cell Titer Glo; assay type: cell-based, human; details: secondary high-throughput screen, ML-2; for pEC50: read-out: average effective concentration, ML-2
MOLM-13 [2] = assay: cells; set-up: species or system AML cell lines (8); Secondary HTS, 10-point dose-response in triplicate, Cell Titer Glo viability, four-parameter fit EC50; details: Homo sapiens, MOLM-13, 72 h, read-out: MOLM-13
MV4-11 [3] = assay: cells; set-up: species or system AML cell lines (8); Secondary HTS, 10-point dose-response in triplicate, Cell Titer Glo viability, four-parameter fit EC50; details: Homo sapiens, MV4-11, 72 h, read-out: MV4-11
CMK [4] = assay: cells; set-up: species or system AML cell lines (8); Secondary HTS, 10-point dose-response in triplicate, Cell Titer Glo viability, four-parameter fit EC50; details: Homo sapiens, CMK, 72 h, read-out: CMK
CMS [5] = assay: cells; set-up: species or system AML cell lines (8); Secondary HTS, 10-point dose-response in triplicate, Cell Titer Glo viability, four-parameter fit EC50; details: 72 h, read-out: CMS
M07e = assay: cells; set-up: species or system AML cell lines (8); Secondary HTS, 10-point dose-response in triplicate, Cell Titer Glo viability, four-parameter fit EC50; details: M-07e, 72 h, read-out: M07e
U937 [6] = assay: cells; set-up: species or system AML cell lines (8); Secondary HTS, 10-point dose-response in triplicate, Cell Titer Glo viability, four-parameter fit EC50; details: Homo sapiens, U-937, 72 h, read-out: U937
MOLM-13 [7] = assay: Secondary dose-response HTS, Cell Titer Glo; assay type: cell-based, human; details: MOLM-13
MV4-11 [8] = assay: Secondary dose-response HTS, Cell Titer Glo; assay type: cell-based, human; details: MV4-11
CMK [9] = assay: Secondary dose-response HTS, Cell Titer Glo; assay type: cell-based, human; details: CMK
CMS [10] = assay: Secondary dose-response HTS, Cell Titer Glo; assay type: cell-based, human
U937 [11] = assay: Secondary dose-response HTS, Cell Titer Glo; assay type: cell-based, human
CHRF288-11 [12] = assay: cells; set-up: species or system AML cell lines (8); Secondary HTS, 10-point dose-response in triplicate, Cell Titer Glo viability, four-parameter fit EC50; details: 72 h, read-out: CHRF288-11
[13] = Homo sapiens, HTS, secondary high-throughput screen, CHRF288-11, read-out: average effective concentration, CHRF288-11
[14] = Homo sapiens, secondary high-throughput screen, read-out: average effective concentration, MOLM-13
[15] = Homo sapiens, secondary high-throughput screen, read-out: average effective concentration, MV4-11
[16] = Homo sapiens, read-out: average effective concentration, CMK
[17] = secondary high-throughput screen
[18] = secondary high-throughput screen, CMS
[19] = secondary high-throughput screen, U937
[20] = secondary high-throughput screen, read-out: average effective concentration, MOLM-13
[21] = secondary high-throughput screen, CHRF288-11, read-out: average effective concentration, CHRF288-11
[22] = secondary high-throughput screen, CMS, read-out: average effective concentration, CMS
[23] = secondary high-throughput screen, U937, read-out: average effective concentration, U937

Molecule | pEC50 (CHRF288-11 [1]; [13]) | pEC50 (ML2; Homo sapiens) | pEC50 (MV4-11 [3]) | pEC50 (CMK [4]) | pEC50 (CMS [5]) | pEC50 (M07e) | pEC50 (U937 [6]) | pEC50 (MOLM-13 [7]; [14]) | pEC50 (CHRF288-11 [12]) | further results
O=C(c1cc(Cc2n[nH]c(=O)c3ccccc23)ccc1F)N1CCN(C(=O)C2CC2)CC1 [OLAPARIB] | < 5.00 | < 5.00 | < 5.00 | < 5.00 | < 5.00 | < 5.00 | < 5.00 |  |  | pEC50 (MOLM-13 [2]): < 5.00
Cn1cc(CNCC2CCN(c3ncc(C(=O)NO)cn3)CC2)c2ccccc21 [Quisinostat, reference compound] | 8.05 |  |  |  |  |  |  | 7.96 |  | pEC50 (MOLM-13 [7]; Homo sapiens, secondary HTS, 72 h, average of triplicate, read-out: EC50 MOLM-13): 8.00; pEC50 (MV4-11 [8]; Homo sapiens, secondary HTS, 72 h, average of triplicate, read-out: EC50 MV4-11): 8.00; pEC50 (MV4-11 [8]; [15]): 8.22; pEC50 (CHRF288-11 [1]; Homo sapiens, secondary HTS, 72 h, average of triplicate, read-out: EC50 CHRF288-11): 8.00; pEC50 (CMK [9]; Homo sapiens, 72 h, read-out: EC50 CMK): 7.70; pEC50 (CMK [9]; [16]): 7.74; pEC50 (CMS [10]; Homo sapiens, HTS, 72 h, read-out: EC50 CMS): 9.00; pEC50 (U937 [11]; Homo sapiens, U-937, secondary HTS, 72 h, average of triplicate, read-out: EC50 U937): 8.00
Cc1nc2ccc(CN(C)c3ccc(C(=O)N[C@@H](CCC(=O)O)C(=O)O)s3)cc2c(=O)[nH]1 [RALTITREXED] | 7.02 | 7.00 |  | < 5.00 | < 5.00 | < 5.00 | < 5.00 | 7.17 |  | pEC50 (MV4-11 [8]; [15]): 7.57
CCOc1cc(C(C)(C)C)ccc1C1=N[C@@](C)(c2ccc(Cl)cc2)[C@@](C)(c2ccc(Cl)cc2)N1C(=O)N1CCN(CCCS(C)(=O)=O)CC1 [RG7112] |  |  |  | < 5.00 | < 5.00 |  | < 5.00 |  | < 5.00 | 
O=C(O)c1ccc2c(c1)nc(Nc1cccc(Cl)c1)c1ccncc12 [SILMITASERTIB] |  | < 5.00 | < 5.00 | < 5.00 | < 5.00 | < 5.00 | < 5.00 | < 5.00 | < 5.00 | 
O=C1c2c(O)ccc(O)c2C(=O)c2c(NCCNCCO)ccc(NCCNCCO)c21 [SJ000285321, MITOXANTHRONE] |  |  |  | 7.37 | 7.07 | 7.48 | 7.59 |  | 7.62 | pEC50 (MOLM-13 [2]): 8.09
O=C(NCC1(c2nc(-c3ccccc3)cs2)CCOCC1)c1cccc(-c2noc(C(F)(F)F)n2)c1 [TMP269] |  |  |  |  |  |  |  |  |  | average effective concentration, MOLM-13 (MOLM-13 [7]; [17]): Inactive; average effective concentration, MV4-11 (MV4-11 [8]; [17]): Inactive; average effective concentration, CHRF288-11 (CHRF288-11 [1]; secondary high-throughput screen, CHRF288-11): Inactive; average effective concentration, CMK (CMK [9]; [17]): Inactive; average effective concentration, CMS (CMS [10]; [18]): Inactive; average effective concentration, ML-2 (ML2): Inactive; average effective concentration, U937 (U937 [11]; [19]): Inactive
Oc1nc(-c2ccc(C(F)(F)F)cc2)nc2c1CSCC2 [XAV939] |  | 5.55 | < 5.00 | < 5.00 | < 5.00 | < 5.00 | < 5.00 |  | < 5.00 | pEC50 (MOLM-13 [2]): < 5.00
C/C1=C\CC(C)(C)/C=C/C(=O)/C(C)=C/CC1 [ZERUMBONE] | 5.07 | 5.16 | < 5.00 |  |  | < 5.00 |  | 5.00 |  | pEC50 (CMK [9]; [16]): 5.14; pEC50 (CMS [10]; Homo sapiens, HTS, read-out: average effective concentration, CMS): 5.14; pEC50 (U937 [11]; Homo sapiens, U-937, secondary high-throughput screen, U937, read-out: average effective concentration, U937): 5.00
BLEOMYCIN |  |  |  |  |  |  |  |  |  | pEC50 (MOLM-13 [7]; [20]): 5.16; average effective concentration, MV4-11 (MV4-11 [8]; [17]): Inactive; average effective concentration, CMK (CMK [9]; [17]): Inactive; average effective concentration, CMS (CMS [10]; [18]): Inactive; average effective concentration, U937 (U937 [11]; [19]): Inactive
I-BET151 |  |  |  |  |  |  |  |  |  | pEC50 (MOLM-13 [7]; [20]): 6.19; average effective concentration, MV4-11 (MV4-11 [8]; [17]): Inactive; pEC50 (CHRF288-11 [1]; [21]): 5.29; average effective concentration, CMK (CMK [9]; [17]): Inactive; pEC50 (CMS [10]; [22]): 5.68; pEC50 (ML2): 5.57; pEC50 (U937 [11]; [23]): 5.49
MITHRAMYCIN A |  |  |  |  |  |  |  |  |  | pEC50 (MOLM-13 [7]; [20]): 6.85; pEC50 (MV4-11 [8]; secondary high-throughput screen, read-out: average effective concentration, MV4-11): 7.28; pEC50 (CHRF288-11 [1]; [21]): 6.80; pEC50 (CMK [9]; secondary high-throughput screen, read-out: average effective concentration, CMK): 6.59; pEC50 (CMS [10]; [22]): 6.74; pEC50 (ML2): 6.64; pEC50 (U937 [11]; [23]): 6.62
